US20240293405A1, “(1H-PYRROLO[2,3-B]PYRIDIN-1-YL)PYRIMIDIN-2-YL-AMINO-PHENYL-ACRYLAMIDE INHIBITORS OF EGFR FOR USE IN THE TREATMENT OF BRAIN TUMORS” (Dana-Farber Cancer Institute, Inc., priority 2021, published 2024)
Values joined by “and” are separate entries in the source; they are usually repeats but may differ in a detail not shown here. Equal entries are not always repeated. Where two headings read alike, the source gives them in different places.

Experiments:
[1] = Brain and plasma exposure after 5 hour intravenous infusion; assay type: in vivo, Sprague Dawley rats; conditions: for Kp at 5 h / concentration at 5 h / concentration at 0.083 h / concentration at 1 h / concentration at 2 h / concentration at 3 h: 3 mg/kg
Experimental: A single IV infustion for 5 hours was administered to each animal, which were then twice observed clinically (30 minutes to 1 hour post-posing and at the end of the study (TTerminal). Blood samples were collected at 5 time points from each animal over the 5 hour infusion period (5 minutes, 1 hour, 2, hours, 3 hours and TTerminal) and processed to plasma. Brains were collected at Tterminal (blotted, weighed, and snap frozen) and brain exposure was compared. […]

EGFR = EGFR (Homo sapiens, UniProt P00533); test: Kinase binding constant (Kd)
Chain of EGFR (P00533 25-1210): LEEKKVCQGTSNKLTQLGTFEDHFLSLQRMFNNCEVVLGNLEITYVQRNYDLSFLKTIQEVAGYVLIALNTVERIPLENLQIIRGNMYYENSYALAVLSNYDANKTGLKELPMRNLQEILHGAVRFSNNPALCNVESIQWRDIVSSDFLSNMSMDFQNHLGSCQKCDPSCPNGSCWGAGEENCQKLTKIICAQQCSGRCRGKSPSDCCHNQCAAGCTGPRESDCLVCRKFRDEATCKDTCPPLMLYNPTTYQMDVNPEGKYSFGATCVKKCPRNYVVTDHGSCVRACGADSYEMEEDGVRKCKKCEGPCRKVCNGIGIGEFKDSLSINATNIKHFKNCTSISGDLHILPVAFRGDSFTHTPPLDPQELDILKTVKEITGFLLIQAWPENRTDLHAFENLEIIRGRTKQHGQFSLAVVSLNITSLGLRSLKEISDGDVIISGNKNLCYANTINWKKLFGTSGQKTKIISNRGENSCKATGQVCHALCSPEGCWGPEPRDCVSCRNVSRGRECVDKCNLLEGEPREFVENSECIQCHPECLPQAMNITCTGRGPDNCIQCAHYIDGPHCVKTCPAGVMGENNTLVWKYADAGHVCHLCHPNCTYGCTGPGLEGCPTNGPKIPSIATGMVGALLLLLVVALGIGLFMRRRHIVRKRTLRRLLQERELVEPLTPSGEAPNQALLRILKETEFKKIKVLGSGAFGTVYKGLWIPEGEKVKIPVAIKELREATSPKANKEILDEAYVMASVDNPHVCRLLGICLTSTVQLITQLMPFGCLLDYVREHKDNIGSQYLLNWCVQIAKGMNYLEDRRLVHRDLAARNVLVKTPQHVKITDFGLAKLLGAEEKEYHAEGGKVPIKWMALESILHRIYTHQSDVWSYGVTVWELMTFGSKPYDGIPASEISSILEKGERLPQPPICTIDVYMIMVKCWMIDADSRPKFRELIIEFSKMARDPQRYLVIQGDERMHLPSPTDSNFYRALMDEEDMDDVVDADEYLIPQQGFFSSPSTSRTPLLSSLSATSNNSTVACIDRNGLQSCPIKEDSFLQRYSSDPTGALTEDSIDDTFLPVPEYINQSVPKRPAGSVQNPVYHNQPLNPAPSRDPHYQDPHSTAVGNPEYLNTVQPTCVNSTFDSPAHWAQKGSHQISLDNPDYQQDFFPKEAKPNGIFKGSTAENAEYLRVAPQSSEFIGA
Excerpt: (§1) EGFR amplifications and/or mutations are common in GBM, estimated to occur in over 50% of patients.

EGFR(E746-A750del) = EGFR(E746-A750del) (Homo sapiens, UniProt P00533, DEL746-750); test: Kinase binding constant (Kd)
Excerpt: as §1

EGFR(G719C) = EGFR(G719C) (Homo sapiens, UniProt P00533, G719C); test: Kinase binding constant (Kd)
Excerpt: as §1

EGFR(G719S) = EGFR(G719S) (Homo sapiens, UniProt P00533, G719S); test: Kinase binding constant (Kd)
Excerpt: as §1

[2] = biological target: EGFR(L747-E749del, A750P) (Homo sapiens, UniProt P00533, A750P/DEL747-749); test: Kinase binding constant (Kd)
Excerpt: as §1

[3] = biological target: EGFR(L747-S752del, P753S) (Homo sapiens, UniProt P00533, DEL747-752/P753S); test: Kinase binding constant (Kd)
Excerpt: as §1

EGFR(L747-T751del,Sins) = EGFR(L747-T751del,Sins) (Homo sapiens, UniProt P00533, DELINS747-751S); test: Kinase binding constant (Kd)
Excerpt: as §1

EGFR(L858R) = EGFR(L858R) (Homo sapiens, UniProt P00533, L858R); test: Kinase binding constant (Kd)
Excerpt: as §1

EGFR(L858R,T790M) = EGFR(L858R,T790M) (Homo sapiens, UniProt P00533, L858R/T790M); test: Kinase binding constant (Kd)
Chain of EGFR(L858R,T790M) (P00533 25-1210 T790M/L858R): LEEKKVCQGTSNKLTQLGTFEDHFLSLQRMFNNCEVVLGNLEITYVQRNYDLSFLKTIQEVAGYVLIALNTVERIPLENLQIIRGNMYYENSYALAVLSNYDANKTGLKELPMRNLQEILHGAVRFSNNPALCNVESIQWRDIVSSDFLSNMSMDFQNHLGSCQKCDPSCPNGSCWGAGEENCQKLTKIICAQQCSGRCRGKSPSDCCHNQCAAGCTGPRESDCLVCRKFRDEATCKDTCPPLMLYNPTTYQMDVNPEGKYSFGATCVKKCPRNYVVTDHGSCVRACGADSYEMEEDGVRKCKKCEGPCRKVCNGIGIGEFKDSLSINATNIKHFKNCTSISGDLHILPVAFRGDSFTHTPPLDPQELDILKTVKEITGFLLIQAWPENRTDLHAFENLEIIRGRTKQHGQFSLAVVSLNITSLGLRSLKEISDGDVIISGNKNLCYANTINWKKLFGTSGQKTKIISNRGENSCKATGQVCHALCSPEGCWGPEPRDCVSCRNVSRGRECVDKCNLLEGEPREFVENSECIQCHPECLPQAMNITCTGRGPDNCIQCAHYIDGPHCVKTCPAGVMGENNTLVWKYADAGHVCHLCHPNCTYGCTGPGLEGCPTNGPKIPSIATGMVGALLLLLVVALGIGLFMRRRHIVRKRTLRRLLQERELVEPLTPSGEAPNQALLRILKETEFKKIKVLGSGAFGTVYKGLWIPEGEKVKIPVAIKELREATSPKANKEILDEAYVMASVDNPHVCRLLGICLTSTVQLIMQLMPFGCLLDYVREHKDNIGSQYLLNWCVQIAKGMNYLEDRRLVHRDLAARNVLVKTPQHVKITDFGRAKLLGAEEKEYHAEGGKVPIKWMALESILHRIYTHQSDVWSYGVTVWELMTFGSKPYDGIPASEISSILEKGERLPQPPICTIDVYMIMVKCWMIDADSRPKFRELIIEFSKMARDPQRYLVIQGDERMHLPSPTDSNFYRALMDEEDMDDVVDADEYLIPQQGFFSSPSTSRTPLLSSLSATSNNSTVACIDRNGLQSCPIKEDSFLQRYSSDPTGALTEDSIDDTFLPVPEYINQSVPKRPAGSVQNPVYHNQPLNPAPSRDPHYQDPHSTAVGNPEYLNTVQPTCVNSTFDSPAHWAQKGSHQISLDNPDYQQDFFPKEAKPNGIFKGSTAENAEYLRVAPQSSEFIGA
Excerpt: as §1

EGFR(L861Q) = EGFR(L861Q) (Homo sapiens, UniProt P00533, L861Q); test: Kinase binding constant (Kd)
Excerpt: as §1

EGFR(S752-I759del) = EGFR(S752-I759del) (Homo sapiens, UniProt P00533, DEL752-759); test: Kinase binding constant (Kd)
Excerpt: as §1

EGFR(T790M) = EGFR(T790M) (Homo sapiens, UniProt P00533, T790M); test: Kinase binding constant (Kd)
Chain of EGFR(T790M) (P00533 25-1210 T790M): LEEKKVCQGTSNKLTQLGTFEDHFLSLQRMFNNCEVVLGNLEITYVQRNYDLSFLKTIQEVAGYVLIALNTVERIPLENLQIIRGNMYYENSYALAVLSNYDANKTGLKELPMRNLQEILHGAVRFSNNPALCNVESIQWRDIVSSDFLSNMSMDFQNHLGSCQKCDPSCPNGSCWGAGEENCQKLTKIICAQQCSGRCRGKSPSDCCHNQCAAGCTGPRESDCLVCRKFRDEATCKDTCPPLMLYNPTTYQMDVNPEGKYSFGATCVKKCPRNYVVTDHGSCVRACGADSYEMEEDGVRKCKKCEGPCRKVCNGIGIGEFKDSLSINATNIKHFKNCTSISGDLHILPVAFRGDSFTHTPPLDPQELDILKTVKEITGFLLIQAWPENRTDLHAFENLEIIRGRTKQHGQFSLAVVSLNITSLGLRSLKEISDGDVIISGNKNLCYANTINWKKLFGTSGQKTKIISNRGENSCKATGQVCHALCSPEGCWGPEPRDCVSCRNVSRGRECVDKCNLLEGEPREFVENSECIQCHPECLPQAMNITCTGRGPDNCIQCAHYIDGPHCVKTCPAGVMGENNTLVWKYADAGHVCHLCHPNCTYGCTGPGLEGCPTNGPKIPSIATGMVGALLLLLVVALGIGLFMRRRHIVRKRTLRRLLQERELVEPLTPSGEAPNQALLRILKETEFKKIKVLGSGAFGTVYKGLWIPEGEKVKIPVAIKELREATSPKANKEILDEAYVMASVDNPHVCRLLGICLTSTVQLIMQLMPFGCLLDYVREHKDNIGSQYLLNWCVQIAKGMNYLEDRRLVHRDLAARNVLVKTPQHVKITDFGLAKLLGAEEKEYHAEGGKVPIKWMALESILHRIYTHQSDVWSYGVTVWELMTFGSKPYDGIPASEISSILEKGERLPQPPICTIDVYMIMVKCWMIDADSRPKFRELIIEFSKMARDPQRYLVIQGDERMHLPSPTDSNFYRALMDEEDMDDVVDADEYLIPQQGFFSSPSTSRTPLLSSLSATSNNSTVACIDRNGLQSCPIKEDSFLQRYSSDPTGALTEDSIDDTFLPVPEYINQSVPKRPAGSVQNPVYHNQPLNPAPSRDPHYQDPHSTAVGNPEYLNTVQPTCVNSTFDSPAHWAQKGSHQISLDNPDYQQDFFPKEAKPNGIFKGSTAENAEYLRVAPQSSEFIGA
Excerpt: as §1

ERBB2 = ERBB2 (Homo sapiens, UniProt P04626); test: Kinase binding constant (Kd)
Excerpt: as §1

ERBB4 = ERBB4 (Homo sapiens, UniProt Q15303); test: Kinase binding constant (Kd)
Chain of ERBB4 (Q15303 26-1308): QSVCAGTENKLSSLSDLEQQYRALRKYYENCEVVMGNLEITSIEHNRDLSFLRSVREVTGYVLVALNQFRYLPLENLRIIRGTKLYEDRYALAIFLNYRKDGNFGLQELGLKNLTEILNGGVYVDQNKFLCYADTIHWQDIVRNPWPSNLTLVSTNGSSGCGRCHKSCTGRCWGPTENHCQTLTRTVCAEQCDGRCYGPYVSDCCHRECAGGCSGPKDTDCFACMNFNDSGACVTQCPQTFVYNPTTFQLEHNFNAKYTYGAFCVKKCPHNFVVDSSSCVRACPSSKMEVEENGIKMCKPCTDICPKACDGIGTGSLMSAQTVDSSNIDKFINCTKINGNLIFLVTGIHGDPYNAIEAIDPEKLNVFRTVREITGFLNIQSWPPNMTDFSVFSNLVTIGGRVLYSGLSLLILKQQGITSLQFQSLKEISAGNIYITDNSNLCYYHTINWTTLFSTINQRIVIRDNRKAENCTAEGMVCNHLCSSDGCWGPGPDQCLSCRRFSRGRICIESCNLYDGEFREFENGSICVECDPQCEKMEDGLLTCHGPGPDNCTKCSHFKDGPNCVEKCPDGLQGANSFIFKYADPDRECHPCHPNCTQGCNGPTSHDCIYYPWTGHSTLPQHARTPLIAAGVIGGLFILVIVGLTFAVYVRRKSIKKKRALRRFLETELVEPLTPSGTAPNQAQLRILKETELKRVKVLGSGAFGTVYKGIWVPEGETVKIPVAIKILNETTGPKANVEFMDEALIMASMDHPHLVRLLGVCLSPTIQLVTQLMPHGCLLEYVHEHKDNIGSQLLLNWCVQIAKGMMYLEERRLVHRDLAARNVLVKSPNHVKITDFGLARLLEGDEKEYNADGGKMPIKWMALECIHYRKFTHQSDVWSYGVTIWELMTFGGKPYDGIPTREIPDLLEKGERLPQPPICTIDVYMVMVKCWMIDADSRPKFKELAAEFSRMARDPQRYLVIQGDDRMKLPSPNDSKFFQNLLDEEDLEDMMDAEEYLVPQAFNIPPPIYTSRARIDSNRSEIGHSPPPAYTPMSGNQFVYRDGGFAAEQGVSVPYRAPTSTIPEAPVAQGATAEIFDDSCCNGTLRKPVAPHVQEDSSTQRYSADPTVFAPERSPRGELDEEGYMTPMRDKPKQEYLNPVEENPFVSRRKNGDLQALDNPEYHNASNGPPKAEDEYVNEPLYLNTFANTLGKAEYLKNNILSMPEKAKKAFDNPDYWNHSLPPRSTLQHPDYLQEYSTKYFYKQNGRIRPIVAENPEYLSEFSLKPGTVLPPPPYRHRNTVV
Excerpt: as §1

[4] = biological target: ALK, EGFR and FLT3 mutants (Homo sapiens, UniProt P00533); test: Targeted kinase binding constants, mutant kinases (summary); conditions: read-out: mutant kinase binding (Kd) for several EGFR single and double mutants
Experimental: Compound 1 and Compound 2 (major metabolite) were evaluated in a panel of 468 human kinases and disease relevant mutant variants. Compound 1 and Compound 2 bound to few non-mutant kinases at <1% of control. […] While there is some variability between Compound 1 and Compound 2, it is clear that both compounds are very effective at binding to a large panel of mutant kinases. […] Binding constant to wild type EGFR was 4.9 nM.

CYP3A4/3A5 = test: CYP phenotyping, human liver microsomes; assay type: in vitro ADME
Excerpt: Metabolism, inhibition and induction were not observed with other CYPs. Potential DDI interactions exist with drugs that are inhibitors of CYP3A4-T or those metabolized by CYP3A4/3A5; these DDI risks will be better defined once there are human pharmacokinetics (PK) data.

[5] = Comparative metabolism and metabolic stability in hepatocytes; assay type: in vitro ADME, human, monkey, dog, rat and mouse
Excerpt: Compound 2 was a major demethylated active metabolite in all species and with the exception of a minor metabolite, M48 in human hepatocytes, all human metabolites were represented in the rat and/or dog, the toxicology species.

[6] = test system: PC-9 cells (EGFR exon 19 deletion); test: Cell viability assay, PC-9 (CellTiter-Glo); assay type: cell-based; conditions: Homo sapiens, PC-9; read-out: IC50, cell viability
Excerpt: CellTier-Glo (Promega) assay kit (https://www.promega.com/resources/protocols/technical-bulletins/0/celltiter-glo-luminescentcell-viability-assay-protocol/) was used here.

[7] = Brain and plasma exposure after single oral dose; assay type: in vivo, Sprague Dawley rats; conditions: Compound 1 30 mg/kg PO, 30 mg/kg; for concentration at 7 h / Kp at 7 h / concentration at 3 h: Sprague Dawley, rat, po; for Kp at 7 h: read-out: Brain/Plasma (ratios)
[8] = 3 mg/kg IV infusion over 5 h, 5 h, individual animal, Compound 2 as metabolite in Compound 1-dosed rats
[9] = Sprague Dawley, rat, brain, other: continuous intravenous infusion and oral dosing, rat, estimated steady state by continuous intravenous infusion and oral dosing, read-out: whole brain exposure relative to plasma

SMILES: C=CC(=O)Nc1cc(Nc2nccc(-n3ccc4cccnc43)n2)c(OC)cc1N(C)CCN(C)C [Compound 1, N-(5-((4-(1H-pyrrolo[2,3-b]pyridin-1-yl)pyrimidin-2-yl)amino)-2-((2-(dimethylamino)ethyl)(methyl)amino)-4-methoxyphenyl)acrylamide]
- Plasma Concentration ([1]; 3 mg/kg IV infusion over 5 h, 0.083 h, individual animal, Compound 2 as metabolite in Compound 1-dosed rats): 14.2 ng/mL and 13.5 ng/mL and 12.8 ng/mL and 13.1 ng/mL and 11.3 ng/mL and 14.3 ng/mL
- Plasma Concentration ([1]; 3 mg/kg IV infusion over 5 h, 1 h, individual animal, Compound 2 as metabolite in Compound 1-dosed rats): 63.5 ng/mL and 54.8 ng/mL and 59.6 ng/mL and 44.2 ng/mL and 51.1 ng/mL and 63.0 ng/mL
- Plasma Concentration ([1]; 3 mg/kg IV infusion over 5 h, 2 h, individual animal, Compound 2 as metabolite in Compound 1-dosed rats): 93.4 ng/mL and 84.2 ng/mL and 81.6 ng/mL and 70.7 ng/mL and 71.9 ng/mL and 70.1 ng/mL
- Plasma Concentration ([1]; 3 mg/kg IV infusion over 5 h, 3 h, individual animal, Compound 2 as metabolite in Compound 1-dosed rats): 95.5 ng/mL and 93.7 ng/mL and 106 ng/mL and 89.5 ng/mL and 94.7 ng/mL and 120 ng/mL
- Brain Tissue Concentration [1, 8]: 2380 ng/g and 2400 ng/g and 2020 ng/g and 2000 ng/g and 1980 ng/g and 2640 ng/g
- Brain/Plasma (ratios) [1, 8]: 18.5 and 20.5 and 18.2
- Plasma Concentration [1, 8]: 107 ng/mL and 120 ng/mL and 109 ng/mL and 97.4 ng/mL and 119 ng/mL
- Kp at 5 h [1, 9]: > 20
- Kp [1, 9]: 20
- concentration at 5 h ([1]; male, Sprague Dawley, rat, brain, intravenous, 3 mg/kg IV infusion over 5 h, 5 h, individual animal, Compound 2 as metabolite in Compound 1-dosed rats, read-out: Brain Tissue Concentration): 2640 ng/g
- concentration at 5 h ([1]; male, Sprague Dawley, rat, brain, intravenous, 3 mg/kg IV infusion over 5 h, 5 h, mean n=6, Compound 2 as metabolite, read-out: Brain Tissue Concentration): 2240 ng/g
- Kp at 5 h ([1]; male, Sprague Dawley, rat, brain, intravenous, rats with continuous infusion, read-out: brain/plasma ratio): ~20
- Kp at 5 h ([1]; male, Sprague Dawley, rat, brain, iv, 3 mg/kg IV infusion over 5 h, 5 h, individual animal, Compound 2 as metabolite in Compound 1-dosed rats, read-out: Brain/Plasma (ratios)): 22.2
- Kp at 5 h ([1]; male, Sprague Dawley, rat, brain, iv, 3 mg/kg IV infusion over 5 h, 5 h, mean n=6, Compound 2 as metabolite, read-out: Brain/Plasma (ratios)): 20.3
- concentration at 0.083 h ([1]; male, Sprague Dawley, rat, plasma, intravenous, 3 mg/kg IV infusion over 5 h, 0.083 h, individual animal, Compound 2 as metabolite in Compound 1-dosed rats): 14.3 ng/mL
- concentration at 0.083 h ([1]; male, Sprague Dawley, rat, plasma, intravenous, 3 mg/kg IV infusion over 5 h, 0.083 h, mean n=6, Compound 2 as metabolite): 13.2 ng/mL
- concentration at 1 h ([1]; male, Sprague Dawley, rat, plasma, intravenous, 3 mg/kg IV infusion over 5 h, 1 h, individual animal, Compound 2 as metabolite in Compound 1-dosed rats): 63 ng/mL
- concentration at 1 h ([1]; male, Sprague Dawley, rat, plasma, intravenous, 3 mg/kg IV infusion over 5 h, 1 h, mean n=6, Compound 2 as metabolite): 56 ng/mL
- concentration at 2 h ([1]; male, Sprague Dawley, rat, plasma, intravenous, 3 mg/kg IV infusion over 5 h, 2 h, individual animal, Compound 2 as metabolite in Compound 1-dosed rats): 70.1 ng/mL
- concentration at 2 h ([1]; male, Sprague Dawley, rat, plasma, intravenous, 3 mg/kg IV infusion over 5 h, 2 h, mean n=6, Compound 2 as metabolite): 78.7 ng/mL
- concentration at 3 h ([1]; male, Sprague Dawley, rat, plasma, intravenous, 3 mg/kg IV infusion over 5 h, 3 h, individual animal, Compound 2 as metabolite in Compound 1-dosed rats): 120 ng/mL
- concentration at 3 h ([1]; male, Sprague Dawley, rat, plasma, intravenous, 3 mg/kg IV infusion over 5 h, 3 h, mean n=6, Compound 2 as metabolite): 99.9 ng/mL
- concentration at 5 h ([1]; male, Sprague Dawley, rat, plasma, intravenous, 3 mg/kg IV infusion over 5 h, 5 h, individual animal, Compound 2 as metabolite in Compound 1-dosed rats, read-out: Plasma Concentration): 119 ng/mL
- concentration at 5 h ([1]; male, Sprague Dawley, rat, plasma, intravenous, 3 mg/kg IV infusion over 5 h, 5 h, mean n=6, Compound 2 as metabolite, read-out: Plasma Concentration): 110 ng/mL
- Brain Penetration (% of B/P ratio in preclinical model) ([1]; own data, infusion in rats): 2000% (infusion)
- activity against wild-type EGFR (EGFR): little activity
- Kd (EGFR; EGFR wild type): 4.9 nM
- Kd (EGFR(E746-A750del)): 0.7 nM
- Kd (EGFR(G719C)): 2.2 nM
- Kd (EGFR(G719S)): 1.7 nM
- Kd [2]: 0.97 nM
- Kd [3]: 3.1 nM
- Kd (EGFR(L747-T751del,Sins)): 2 nM
- Kd (EGFR(L858R)): 4.6 nM
- Kd (EGFR(L858R,T790M)): 0.11 nM
- Kd (EGFR(L861Q)): 3.9 nM
- Kd (EGFR(S752-I759del)): 2.9 nM
- Kd (EGFR(T790M)): 0.15 nM
- Kd (ERBB2): 11 nM
- Kd (ERBB4): 11 nM
- Kd [4]: < 1 nM
- primarily metabolizing CYP (CYP3A4/3A5): CYP3A4/3A5
- metabolic stability ([5]; hepatocytes, species comparison): greatest in human hepatocytes
- number of metabolites detected in hepatocytes ([5]; human, monkey, dog, rat and/or mouse hepatocytes): 22
- IC50 [6]: 62.8 nM
- Plasma Concentration ([7]; 3 hr, individual animal): 181 ng/mL and 229 ng/mL and 273 ng/mL
- Brain Tissue Concentration ([7]; 7 hr, individual animal): 8280 ng/g and 5210 ng/g and 7400 ng/g
- Brain/Plasma (ratios) ([7]; 7 hr, individual animal): 31.2 and 26.4
- Plasma Concentration ([7]; 7 hr, individual animal): 265 ng/mL and 197 ng/mL and 275 ng/mL
- concentration at 7 h ([7]; brain, 7 hr, individual animal, read-out: Brain Tissue Concentration): 7400 ng/g
- Kp at 7 h ([7]; brain, 7 hr, individual animal): 26.9
- concentration at 7 h ([7]; brain, 7 hr, mean n=3, read-out: Brain Tissue Concentration): 6960 ng/g
- Kp at 7 h ([7]; brain, 7 hr, mean n=3): 28.3
- concentration at 3 h ([7]; plasma, 3 hr, individual animal): 273 ng/mL
- concentration at 3 h ([7]; plasma, 3 hr, mean n=3): 228 ng/mL
- concentration at 7 h ([7]; plasma, 7 hr, individual animal, read-out: Plasma Concentration): 275 ng/mL
- concentration at 7 h ([7]; plasma, 7 hr, mean n=3, read-out: Plasma Concentration): 246 ng/mL
